Patent US12245999B2, “Valproic acid for the treatment or prevention of pathological conditions associated with excess fibrin deposition and/or thrombus formation” (Cereno Scientific AB, priority 2014, dated 2025)
Read-outs that look alike come from different tables or passages of the source.

Columns and labels:
[1] = test system: PAI-1; experiment: Proof-of-concept cross-over study in healthy subjects: plasma PAI-1 before and after valproic acid; format: in vivo, human; conditions: 500 mg (Ergenyl Retard) twice daily during 14 days, p<0.05
Experimental: (§1) The effects of VPA on PAI-1 were analysed in two different proof-of-concept studies in healthy subjects as well as in patients with manifest atherosclerotic disease. […] PAI-1 plasma levels were measured in the morning at the first day of the study as well as at the end of the treatment period with VPA (see example 2 for details on the PAI-1 analysis).
In the first study, 10 healthy non-smoking white male subjects (with mean BMI of approximately 26), aged 50-70 years were included and treated with valproic acid 500 mg (Ergenyl Retard, Sanofi) twice daily during 14 days.
(§2) The study comprises 20 patients with TIA/minor stroke. Patients are investigated before and after oral treatment with 400 mg valproic acid once time daily at 11 pm for 2 weeks. Plasma PAI-1 levels and plasma concentrations of valproic acid is followed daily during the study period at the following time-points: 3 am, 6 am, 10 am, 16 pm, 22 pm PAI-1 levels are measured by commercially available ELISA-kits (Coaliza PAI-1, Chromogenix AB) and the plasma concentration of valproic acid an metabolites thereof is analyzed according to clinical routine at the Sahlgrenska University laboratory, Gothenburg, Sweden.

[2] = test system: PAI-1; experiment: Proof-of-concept cross-over study in patients with a history of myocardial infarction: plasma PAI-1 before and after valproic acid; format: in vivo, human; conditions: midmorning, p=0.01; for reduction in circulating plasma PAI-1 levels: 16 male patients with history of myocardial infarction, 500 mg (Ergenyl Retard) twice daily during 28 days on top of ordinary prescription
Experimental: as §1
In the second study, 16 non-smoking white male patients, aged 50-80 years with a history of a myocardial infarction were included. On top of their ordinary prescription (beta-blocker, ACE-inhibitor, statin, aspirin) they were treated with valproic acid 500 mg (Ergenyl Retard, Sanofi), twice daily during 28 days.
as §2

[3] = test system: PAI-1; experiment: In vitro cultured endothelial cells: PAI-1 mRNA / production after VPA treatment; format: cell-based
[4] = test system: PAI-1; experiment: In vivo model in mouse: plasma PAI-1; conditions: in vivo model in mouse (unpublished data)
[5] = test system: PAI-1; experiment: Intermediate endpoint study in patients with TIA/minor stroke: plasma PAI-1 (ELISA); format: in vivo, human; conditions: 20 patients with TIA/minor stroke, 400 mg enteric-coated tablet once daily at 11 pm for 2 weeks
Experimental: An intermediate endpoint proof-of-concept study is performed in patients with TIA/minor stroke investigated before and after treatment with Valproic acid. Valproic acid is administrated as an enteric-coated tablet with delayed absorption.
as §2

[6] = Clinical outcome study in high-risk patients: recurrent atherothrombotic events; format: in vivo, human; conditions: 400 mg once daily at 11 pm, long-term, expected
Experimental: A clinical outcome study is performed in high-risk patients who have experienced a recent major atherothrombotic cardiovascular event (myocardial infarction or TIA/ischemic stroke) to investigate the preventive effect of valproic acid treatment on the risk for recurrent events. The annual risk for a recurrent atherothrombotic event in the investigated population is estimated to approximately 7%. Patients are randomized in a parallel study design to receive double-blind oral treatment with 400 mg valproic acid (as in Example 2) or placebo once time daily at 11 pm, in addition to optimal conventional treatment. The event rate is monitored by Kaplan-Meyer statistics. The primary efficacy endpoint is the composite measure of either mortality, or non-fatal myocardial infarction or ischemic stroke. The study is event-driven to a total of 180 events.

[7] = test system: PAI-1; conditions: in vivo model in pig (Svennerholm et al., PLoS One 2014); cited from earlier work

In the case of `CCCC(CCC)C(=O)O` [valproic acid, 2-propylpentanoic acid], the “reduction in circulating plasma PAI-1 levels” value ([1]; 10 healthy male subjects, mid-morning vs before treatment) is reported as “more than 50%”, the “circulating plasma PAI-1 level after treatment” value ([1]; healthy male subjects, mid-morning, 22.2 ng/ml before treatment) is reported as 10.8 ng/mL and the “reduction in circulating plasma PAI-1 levels” value [2] is reported as 45%. For the same compound, the “reduction in circulating plasma PAI-1 levels” value ([2]; listed as VPA) was “about 45%”, the “circulating plasma PAI-1 level after treatment” value ([2]; patients with history of myocardial infarction, 500 mg (Ergenyl Retard) twice daily during 28 days, 19.6 ng/ml before treatment) was 11 ng/mL and the “PAI-1 mRNA levels after VPA treatment” value [3] was “did not show a decrease”. For the same compound, the “increase in PAI-1 production” value ([3]; slight but significant) was 30%, the “effects on plasma PAI-1” value [4] was “did not detect any effects” and the “plasma PAI-1 levels lowered after the treatment” value [5] was “approximately 30%”. For the same compound, the “reduction of risk for recurrent atherothrombotic event” value ([6]; in addition to conventional therapy) was “approximately 30%”, the “annual absolute event rate” value ([6]; estimated approximately 7% without treatment) was “approximately 5%” and the “effects on plasma PAI-1” value [7] was “did not detect any effects”.
